Where “and” joins values, the source holds several entries; their conditions need not be identical. Equal values may be shown once. ± gives the expanded uncertainty stated by the source.
Experiments:
[1] = xn = mol fraction of the nth substance listed; conditions: 101.3 kPa, Liquid, x2 = 0; for speed of sound: Single path-length method; for mass density: Vibrating tube method
[2] = 101.3 kPa, Liquid; for speed of sound: Single path-length method; for mass density: Vibrating tube method

SMILES	speed of sound ([1]; 293.15 K) [m/s]	mass density ([1]; 293.15 K) [kg/m3]	speed of sound ([1]; 303.15 K) [m/s]	mass density ([1]; 303.15 K) [kg/m3]	speed of sound ([1]; 313.15 K) [m/s]	mass density ([1]; 313.15 K) [kg/m3]	speed of sound ([1]; 323.15 K) [m/s]	mass density ([1]; 323.15 K) [kg/m3]	speed of sound ([2]; 293.15 K) [m/s]	mass density ([2]; 293.15 K) [kg/m3]	speed of sound ([2]; 303.15 K) [m/s]	mass density ([2]; 303.15 K) [kg/m3]	speed of sound ([2]; 313.15 K) [m/s]	mass density ([2]; 313.15 K) [kg/m3]	speed of sound ([2]; 323.15 K) [m/s]	mass density ([2]; 323.15 K)
CCCO [propan-1-ol] + CC(=O)[O-].OCC[NH2+]CCO	1223.4 ± 20	803.6 ± 6	1189.4 ± 20	795.7 ± 6	1155.5 ± 20	787.5 ± 6	1122 ± 20	779.2 ± 6	–	–	–	–	–	–	–	–
CC(C)O [propan-2-ol] + CC(=O)[O-].[NH3+]CCO	1174.3 ± 20	791.5 ± 6	1122.4 ± 20	777 ± 6	1087.4 ± 20	768.2 ± 6	1051.6 ± 20	759 ± 6	–	–	–	–	–	–	–	–
CCCO [propan-1-ol] + CC(=O)[O-].[NH3+]CCO	1223.4 ± 20	803.6 ± 6	1189.4 ± 20	795.7 ± 6	1155.5 ± 20	787.5 ± 6	1122 ± 20	779.2 ± 6	–	–	–	–	–	–	–	–
CC(C)O [propan-2-ol]	–	–	–	–	–	–	–	–	1174.3 ± 20	791.5 ± 6	1122.4 ± 20	777 ± 6	1087.4 ± 20	768.2 ± 6	1051.6 ± 20	759 ± 6 kg/m3
CC(=O)[O-].[NH3+]CCO [2-hydroxyethylammonium acetate]	–	–	–	–	–	–	–	–	1812.9 ± 20	1150 ± 6	1781.2 ± 20	1144 ± 6	1754.7 ± 20	1139 ± 6	1730.9 ± 20	1133 ± 6 kg/m3 and 1132 ± 6 kg/m3
CCCO [propan-1-ol]	–	–	–	–	–	–	–	–	1223.4 ± 20	803.6 ± 6	1189.4 ± 20	795.7 ± 6	1155.5 ± 20	787.5 ± 6	1122 ± 20	779.2 ± 6 kg/m3
CC(C)O [propan-2-ol] + CC(=O)[O-].OCC[NH2+]CCO	1174.3 ± 20	791.5 ± 6	1122.4 ± 20	777 ± 6	1087.4 ± 20	768.2 ± 6	1051.6 ± 20	759 ± 6	–	–	–	–	–	–	–	–
CC(=O)[O-].OCC[NH2+]CCO [2,2'-azanediylbis(ethanol) acetate]	–	–	–	–	–	–	–	–	1884.7 ± 20	1180 ± 6	1828.2 ± 20	1173 ± 6	1788.6 ± 20	1167 ± 6	1756 ± 20	1160 ± 6 kg/m3

Reference: the NIST ThermoML archive (doi:10.1021/acs.jced.9b00147)
